Test results as given in US9562035B2, “Benzamide derivative useful as FASN inhibitors for the treatment of cancer” (Janssen Pharmaceutica NV, priority 2013, dated 2017).

Legend:
[1] = molecular target: T1, FASN Keto-reductase Domain (Homo sapiens, UniProt P49327); experiment: Fatty Acid Synthase Keto-Reductase Domain (FASN KR) Inhibition; format: biochemical; settings: mean where tested more than once; read-out: FASN K-R Domain pIC50 (converted)
T1 construct: 10 μL hFASN enzyme (full length, 300 ng, purified in house) and 360 μM NADPH; made in house
Description: 10 μL assay buffer (100 mM KH2PO4 pH 7.5) was added to a 384-well clear plate (costar 3702). 0.3 μL compound (at concentrations of 30 μM, 10 μM, 3 μM, 1 μM, 0.30 μM, 0.10 μM, 0.03 μM and 0.01 μM)/DMSO, 10 μL hFASN enzyme (full length, 300 ng, purified in house) and 360 μM NADPH (except in blank) were then added. Then, 10 μL 180 mM ethyl acetoacetate (Aldrich 688983) was added, mixed and immediately thereafter, the absorbance at 340 nm (T1) by Multiscan (Labsystems) was measured. After 20 minutes incubation at room temperature the plate was measured again (T2).
The decrease in absorbance was calculated as (Absorbance before incubation T1)−(Absorbance following incubation T2).
(§1) Raw data generated by the instrument were normalized to % Controlmin values, which were calculated as: % Controlmin=100*(x−mLC)/(mHC−mLC)
(§2) where mLC and mHC were the means of the low control wells and high control wells on the plate, after manual exclusion of outliers. A plot of Controlmin versus test compound concentration was fitted to a 4-parameter logistic curve using a non-linear least squares regression method. From the plot, an IC50 (concentration at which 50% inhibition is achieved) was calculated. pIC50 values were calculated as −log(IC50), when IC50 is expressed in molar units.

[2] = molecular target: T2, hFASN enzyme (full length) (Homo sapiens, UniProt P49327); experiment: Fatty Acid Synthase (FASN) Inhibition Scintillation Proximity Assay; format: biochemical; settings: for IC50: mean where tested more than once, ~ = standard error of pIC50 larger than 0.5; for inhibition at 10 µM: read-out: FASN % Effect @1E−05M
T2 construct: 10 μL hFASN enzyme (full length, 300 ng, purified in house); made in house
Description: In this assay, inhibition of FASN activity is measured using ^3H-acetyl-CoA and malonyl-CoA as substrates. ^3H-Acetyl CoA is converted to ^3H-palmitate through a series of reactions by the FASN protein, which contains 7 functional domains and carries out 7 enzymatic reactions to ultimately produce ^3H-palmitate. The assay principle is based upon the fact that ^3H-acetyl-CoA is hydrophilic and the end product, ^3H-palmitate is hydrophobic.
10 μL assay buffer (100 mM KH2PO4 pH 7.5, 1 mM DTT) (20 μL in blanks) was added to a 384-well white Opti Plate plate (Perkin Elmer). 0.9 μL test compound (at concentrations of 30 μM, 10 μM, 3 μM, 1 μM, 0.30 μM, 0.10 μM, 0.03 μM and 0.01 μM)/DMSO and 10 μL hFASN enzyme (full length, 300 ng, purified in house) or 10 μL assay buffer was added to the wells. Then 10 μL 450 μM NADPH (Sigma N7505), 18.75 μM [^3H]-acetyl-CoA (Perkin Elmer NET-290L), 150 μM malonyl-CoA (Sigma M4263) were added, mixed and incubated at room temperature for 60 minutes. The reaction was stopped by adding 20 μL Streptavidin coupled imaging beads (25 mg/ml). After incubation for 30 minutes at room temperature in the dark, the 384 well plate was centrifuged at 1500 rpm for 3 minutes and was measured after at least 24 hrs by the LEADseeker™, measuring emission using a 610±20 nm pass filter. (Bays, N. W., et al., “A simplified scintillation proximity assay for fatty acid synthase activity: development and comparison with other FAS activity assays”, J. Biomol. Screen, 2009, pp 636-642, Vol. 14(6).)
as §1, §2

T1 sequence (P49327 whole entry, the tested form may be a part): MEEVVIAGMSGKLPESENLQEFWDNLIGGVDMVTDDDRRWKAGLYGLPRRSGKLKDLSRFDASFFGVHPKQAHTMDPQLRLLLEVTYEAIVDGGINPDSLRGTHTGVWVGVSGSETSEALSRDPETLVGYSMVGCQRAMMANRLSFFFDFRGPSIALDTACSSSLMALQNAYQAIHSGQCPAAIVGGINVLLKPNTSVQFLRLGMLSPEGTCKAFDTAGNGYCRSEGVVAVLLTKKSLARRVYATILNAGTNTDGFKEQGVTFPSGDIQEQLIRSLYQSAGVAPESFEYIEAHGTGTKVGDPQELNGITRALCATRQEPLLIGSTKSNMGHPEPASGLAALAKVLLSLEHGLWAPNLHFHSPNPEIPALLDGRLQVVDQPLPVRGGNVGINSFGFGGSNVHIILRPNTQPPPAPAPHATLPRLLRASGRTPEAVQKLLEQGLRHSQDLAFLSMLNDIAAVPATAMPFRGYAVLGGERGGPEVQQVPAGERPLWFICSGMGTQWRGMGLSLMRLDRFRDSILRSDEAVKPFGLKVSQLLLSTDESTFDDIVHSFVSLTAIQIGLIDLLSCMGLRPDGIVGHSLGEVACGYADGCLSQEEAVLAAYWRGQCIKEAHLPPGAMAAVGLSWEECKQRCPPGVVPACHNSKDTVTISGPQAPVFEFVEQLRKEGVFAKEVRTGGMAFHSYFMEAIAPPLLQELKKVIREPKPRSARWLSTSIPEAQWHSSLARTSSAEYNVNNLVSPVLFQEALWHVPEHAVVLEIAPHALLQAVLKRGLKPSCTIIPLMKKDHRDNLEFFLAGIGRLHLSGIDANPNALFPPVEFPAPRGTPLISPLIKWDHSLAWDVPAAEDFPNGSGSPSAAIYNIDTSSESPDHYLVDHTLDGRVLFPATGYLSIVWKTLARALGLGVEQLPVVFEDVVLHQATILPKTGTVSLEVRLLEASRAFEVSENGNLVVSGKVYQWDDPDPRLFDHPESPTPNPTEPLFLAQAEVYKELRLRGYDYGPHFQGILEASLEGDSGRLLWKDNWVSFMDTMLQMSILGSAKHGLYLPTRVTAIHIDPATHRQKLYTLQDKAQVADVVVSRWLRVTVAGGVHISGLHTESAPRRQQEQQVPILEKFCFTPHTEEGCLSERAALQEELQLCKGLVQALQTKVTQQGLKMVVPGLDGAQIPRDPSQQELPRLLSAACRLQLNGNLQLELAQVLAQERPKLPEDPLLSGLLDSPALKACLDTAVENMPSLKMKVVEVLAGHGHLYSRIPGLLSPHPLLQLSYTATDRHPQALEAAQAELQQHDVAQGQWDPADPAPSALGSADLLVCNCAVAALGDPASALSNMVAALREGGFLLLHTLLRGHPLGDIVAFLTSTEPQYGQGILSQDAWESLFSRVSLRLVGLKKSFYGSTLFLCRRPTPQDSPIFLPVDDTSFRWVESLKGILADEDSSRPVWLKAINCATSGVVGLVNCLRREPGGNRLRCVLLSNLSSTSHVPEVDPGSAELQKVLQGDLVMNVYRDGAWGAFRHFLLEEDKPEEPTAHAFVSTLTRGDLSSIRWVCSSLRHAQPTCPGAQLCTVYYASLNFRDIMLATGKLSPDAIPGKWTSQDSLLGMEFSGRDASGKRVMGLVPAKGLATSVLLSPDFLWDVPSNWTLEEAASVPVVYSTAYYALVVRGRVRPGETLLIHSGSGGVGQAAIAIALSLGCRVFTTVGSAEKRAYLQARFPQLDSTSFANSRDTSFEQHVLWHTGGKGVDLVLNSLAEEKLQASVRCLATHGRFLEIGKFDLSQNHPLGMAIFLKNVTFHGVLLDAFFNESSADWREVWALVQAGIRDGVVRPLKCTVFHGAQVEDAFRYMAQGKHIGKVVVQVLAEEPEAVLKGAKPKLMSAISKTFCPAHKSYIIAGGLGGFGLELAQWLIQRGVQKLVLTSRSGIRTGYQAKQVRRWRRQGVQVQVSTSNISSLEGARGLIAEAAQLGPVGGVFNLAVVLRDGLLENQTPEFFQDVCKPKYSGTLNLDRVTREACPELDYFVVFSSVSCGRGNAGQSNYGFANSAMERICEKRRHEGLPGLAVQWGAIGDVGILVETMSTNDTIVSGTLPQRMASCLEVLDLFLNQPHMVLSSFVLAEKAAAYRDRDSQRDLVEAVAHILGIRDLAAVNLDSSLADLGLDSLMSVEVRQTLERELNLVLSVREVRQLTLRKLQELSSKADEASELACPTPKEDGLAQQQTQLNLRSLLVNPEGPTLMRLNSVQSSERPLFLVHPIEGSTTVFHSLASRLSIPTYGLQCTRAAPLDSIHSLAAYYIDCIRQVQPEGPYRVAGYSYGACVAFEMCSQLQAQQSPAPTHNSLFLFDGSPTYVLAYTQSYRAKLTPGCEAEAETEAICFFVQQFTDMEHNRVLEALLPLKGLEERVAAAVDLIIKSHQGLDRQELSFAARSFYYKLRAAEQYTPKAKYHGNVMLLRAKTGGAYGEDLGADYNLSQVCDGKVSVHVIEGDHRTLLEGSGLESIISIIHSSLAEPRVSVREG
T2 sequence (P49327 whole entry): as the sequence (P49327 whole entry, the tested form may be a part) above

| Structure (SMILES) | IC50 [1] [µM] | IC50 [2] [µM] | inhibition at 10 µM [2] [%] |
| --- | --- | --- | --- |
| Cc1ccc(C(=O)N2CCC(c3ccc4nccn4c3)CC2)cc1NC(=O)c1ccc(Cl)nc1 [Compound 14, 6-chloro-N-(5-(4-(imidazo[1,2-a]pyridin-6-yl)piperidine-1-carbonyl)-2-methylphenyl)nicotinamide] | 17 | > 30.2 | 30 |
| Cc1ccc(C(=O)N2CCC(c3ccc4nccn4c3)CC2)cc1NC(=O)c1ccc(NC(C)C)nc1 [Compound 17, N-(5-(4-(imidazo[1,2-a]pyridin-6-yl)piperidine-1-carbonyl)-2-methylphenyl)-6-(isopropylamino)nicotinamide] | 8.13 | ~12.9 | 51 |
| Cc1ccc(C(=O)N2CCC(c3ccc4nncn4c3)CC2)cc1NC(=O)c1ccc(Cl)nc1 [Compound 18, N-(5-(4-([1,2,4]triazolo[4,3-a]pyridin-6-yl)piperidine-1-carbonyl)-2-methylphenyl)-6-chloronicotinamide] | > 30.2 | > 30.2 | 2 |
| Cc1ccc(C(=O)N2CCC(c3ccc4c(c3)CN(C)C4=O)CC2)cc1NC(=O)c1ccc(NC(C)C)nc1 [Compound 19, 6-(isopropylamino)-N-(2-methyl-5-(4-(2-methyl-1-oxoisoindolin-5-yl)piperidine-1-carbonyl)phenyl)nicotinamide] | 5.5 | 6.61 | 50 |
| Cc1ccc(C(=O)N2CCC(c3ccc4nncn4c3)CC2)cc1NC(=O)c1ccc(NC(C)C)nc1 [Compound 20, N-(5-(4-([1,2,4]triazolo[4,3-a]pyridin-6-yl)piperidine-1-carbonyl)-2-methylphenyl)-6-(isopropylamino)nicotinamide] | – | ~30.2 | 30 |
| Cc1ccc(C(=O)N2CCC(c3ccc4c(c3)C(C)N(C)C4=O)CC2)cc1NC(=O)c1ccc(Cl)nc1 (stereo not shown) [Compound 21, 6-chloro-N-(5-(4-(2,3-dimethyl-1-oxoisoindolin-5-yl)piperidine-1-carbonyl)-2-methylphenyl)nicotinamide] | 13.2 | 27.5 | 22 |
| Cc1ccc(C(=O)N2CCC(c3ccc4c(c3)C(C)N(C)C4=O)CC2)cc1NC(=O)c1ccc(NC(C)C)nc1 (stereo not shown) [Compound 22, N-(5-(4-(2,3-dimethyl-1-oxoisoindolin-5-yl)piperidine-1-carbonyl)-2-methylphenyl)-6-(isopropylamino)nicotinamide] | 7.94 | 4.9 | 60 |
| Cc1ccc(C(=O)N2CCC(c3ccc4ncsc4c3)CC2)cc1NC(=O)c1ccc(NC(C)C)nc1 [Compound 46, N-(5-(4-(benzo[d]thiazol-6-yl)piperidine-1-carbonyl)-2-methylphenyl)-6-(isopropylamino)nicotinamide] | – | 2.29 | 74 |
| Cc1ccc(C(=O)N2CCC(c3ccc4ncsc4c3)CC2)cc1NC(=O)c1ccc(Cl)nc1 [Compound 47, N-(5-(4-(benzo[d]thiazol-6-yl)piperidine-1-carbonyl)-2-methylphenyl)-6-chloronicotinamide] | – | ~7.76 | 60 |
| Cc1ccc(C(=O)N2CC(O)(c3ccc(-c4ccnn4C)cc3)C2)cc1NC(=O)c1ccc(Cl)nc1 [Compound 107, 6-chloro-N-(5-(3-hydroxy-3-(4-(1-methyl-1H-pyrazol-5-yl)phenyl)azetidine-1-carbonyl)-2-methylphenyl)nicotinamide] | – | > 10 | 41 |
| Cc1ccc(C(=O)N2CCC(c3ccc(-c4cnn(C)c4)cc3)CC2)cc1NC(=O)c1ccc(N2CCN[C@H](CO)C2)nc1 [Compound 164, (3S)-6-(3-(hydroxymethyl)piperazin-1-yl)-N-(2-methyl-5-(4-(4-(1-methyl-1H-pyrazol-4-yl)phenyl)piperidine-1-carbonyl)phenyl)nicotinamide] | 0.0417 | 0.0209 | 110 |
| Cc1ccc(C(=O)N2CC(c3ccc(-c4cnn(C)c4)cc3)C2)cc1NC(=O)C1CCCC1 [Compound 226, N-(2-methyl-5-(3-(4-(1-methyl-1H-pyrazol-4-yl)phenyl)azetidine-1-carbonyl)phenyl)cyclopentanecarboxamide] | – | > 10 | 17 |
| Cc1ccc(C(=O)N2CCC(c3ccc(-c4cnn(C)c4)cc3)CC2)cc1NC(=O)c1nccn1C [Compound 227, 1-methyl-N-(2-methyl-5-(4-(4-(1-methyl-1H-pyrazol-4-yl)phenyl)piperidine-1-carbonyl)phenyl)-1H-imidazole-2-carboxamide] | – | 2.45 | 63 |
| Cc1ccc(C(=O)N2CCC(c3ccc(-c4cnn(C)c4)cc3)CC2)cc1NC(=O)c1nc(C(C)(C)C)cs1 [Compound 229, 4-(tert-butyl)-N-(2-methyl-5-(4-(4-(1-methyl-1H-pyrazol-4-yl)phenyl)piperidine-1-carbonyl)phenyl)thiazole-2-carboxamide] | – | 4.07 | 61 |
| Cc1ccc(-c2ccc(C3CCN(C(=O)c4ccc(C)c(NC(=O)c5ccc(NC(C)C)nc5)c4)CC3)cc2)cc1 [Compound 234, 6-(isopropylamino)-N-(2-methyl-5-(4-(4′-methyl-[1,1′-biphenyl]-4-yl)piperidine-1-carbonyl)phenyl)nicotinamide] | – | ~2 | 63 |
| CN(C(=O)C1CC1)c1ccc(C(=O)N2CCC(c3ccc(-c4cnn(C)c4)cc3)CC2)cc1NC(=O)C1CC1 [Compound 277, N-(2-(cyclopropanecarboxamido)-4-(4-(4-(1-methyl-1H-pyrazol-4-yl)phenyl)piperidine-1-carbonyl)phenyl)-N-methylcyclopropanecarboxamide] | – | 4.47 | 62 |
| COCCN(C(=O)C1CC1)c1ccc(C(=O)N2CCC(c3ccc(-c4cnn(C)c4)cc3)CC2)cc1NC(=O)C1CC1 [Compound 291, N-(2-(cyclopropanecarboxamido)-4-(4-(4-(1-methyl-1H-pyrazol-4-yl)phenyl)piperidine-1-carbonyl)phenyl)-N-(2-methoxyethyl)cyclopropanecarboxamide] | – | > 10 | – |
